Legend:
[1] = target: T1, human PPARγ LBD bound to Gal4 DBD (Homo sapiens, UniProt P37231); assay: PPARγ transfection luciferase reporter assay in HepG2 cells; type: cell-based; conditions: for Emax: HepG2, 24 h, compared to full agonist response (standard TZD full agonist), read-out: PPARγ % activation; for EC50: HepG2, 24 hours exposure
T1 construct: expressed in transfected cells; host or cells: HepG2
T1 sequence (P37231 238-503 limits assumed): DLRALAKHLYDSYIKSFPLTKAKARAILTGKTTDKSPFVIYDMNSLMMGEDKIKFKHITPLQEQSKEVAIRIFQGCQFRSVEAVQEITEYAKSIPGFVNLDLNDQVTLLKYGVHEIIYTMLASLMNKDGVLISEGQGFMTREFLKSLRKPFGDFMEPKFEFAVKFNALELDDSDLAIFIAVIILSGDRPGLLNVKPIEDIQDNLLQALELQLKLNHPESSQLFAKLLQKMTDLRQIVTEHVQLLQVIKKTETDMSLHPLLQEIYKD
Experimental: PPARγ agonist activity may be determined by a cell line transiently transfected with PPARγ bound to a DNA binding domain that controls luciferase expression. The degree of receptor agonism is measured by the amount of luciferase activity after compound treatment. The ratio of treated cells over vehicle control cells provides a measure of fold activation and allows an EC50 (shown in tables I and II as […] EC50) and % activation to be calculated
A human hepatocellular carcinoma cell line (HepG2) was subcultured into dishes and transiently transfected with DNA to allow expression of human PPARγ LBD bound to Gal4 DBD. Luciferase reporter gene and β-galactosidase control genes were co-transfected to enable activity to be measured. After 24 hours, cells were exposed to compounds in the concentration range of 0.1 nM-100 μM and left for a further 24 hours. Luciferase activity is determined by luminometry and PPARγ activation is expressed as a ratio of luciferase activity to β-galactosidase activity to account for transfection efficiency. Potency is described by an EC50 defined as the concentration of compound producing receptor activation equivalent to 50% of the maximum for that compound (shown in Table I as transfection EC50). The maximum fold activation is a measure of efficacy and is expressed as a percentage of a reference full agonist run in the same assay. Efficacy is described by % activation of receptor relative to a standard thiazolidinedione (TZD) full agonist.

[2] = target: T2, Human recombinant AT1 receptor (Homo sapiens, UniProt P30556); assay: AT1 receptor radioligand binding (flashplate); conditions: 125I Sar1,Ile8-Angiotensin II radioligand
T2 construct: purchased
T2 sequence (P30556 1-359): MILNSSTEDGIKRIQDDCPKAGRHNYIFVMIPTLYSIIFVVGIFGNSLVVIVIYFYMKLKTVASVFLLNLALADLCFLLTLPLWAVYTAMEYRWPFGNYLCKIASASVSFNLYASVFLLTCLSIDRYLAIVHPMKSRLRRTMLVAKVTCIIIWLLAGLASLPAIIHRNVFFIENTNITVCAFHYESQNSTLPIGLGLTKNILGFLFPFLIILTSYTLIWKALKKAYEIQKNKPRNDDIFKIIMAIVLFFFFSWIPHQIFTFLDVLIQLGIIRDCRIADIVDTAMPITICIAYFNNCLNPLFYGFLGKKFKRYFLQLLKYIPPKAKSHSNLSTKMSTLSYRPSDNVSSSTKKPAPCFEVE
Experimental: Angiotensin II receptor antagonist activity may be determined using commercially available flashplates coated with the AT1 or AT2 receptor which provide a rapid and high throughput means to evaluate compounds compared to traditional filtration based assays (Regina M. Van Der Hee et al., Journal of Biomolecular Screening 10(2); 2005; 118-126).
AT1 receptor affinity was determined in a radioligand binding format using commercially available flashplate technology. Human recombinant AT1 receptor were coated on the wells of a 96 well flashplate and test compounds were diluted and added to wells at a final concentration range of 50 μM to 1 μM. Total binding was determined in the absence of compound and non-specific binding in the presence of 10 μM cold Angiotensin II. ^125I labeled Sar^1, Ile^8-Angiotensin II was added to all wells at Kd concentration and left for 2 hours at room temperature to equilibrate. Plates were read on a TopCount (Perkin Elmer) and concentration-response curves constructed using commercial curve fitting software. The Ki was determined via interpolation and the use of the Cheng-Prussof equation.

Emax [1] [%] | EC50 [1] [nM] | IC50 [2] [nM] | Structure (SMILES)
27 | 295 | 2.4 | CCc1nc2c(C)cc(CC3CCCCC3=O)nc2n1[C@H]1CCc2cc(-c3ccccc3-c3nnn[nH]3)ccc21 (stereo partly drawn) [Example 63, 2-((3-((1S)-5-(2-(1H-tetrazol-5-yl)phenyl)-2,3-dihydro-1H-inden-1-yl)-2-ethyl-7-methyl-3H-imidazo[4,5-b]pyridin-5-yl)methyl)cyclohexanone]
24 | 135 | 1.1 | CCc1nc2c(C)cc(CC[C@@H](C)OC)nc2n1[C@H]1CCc2cc(-c3ccccc3-c3nnn[nH]3)ccc21 [Example 39, 3-((1S)-5-(2-(1H-tetrazol-5-yl)phenyl)-2,3-dihydro-1H-inden-1-yl)-2-ethyl-5-((R)-3-methoxybutyl)-7-methyl-3H-imidazo[4,5-b]pyridine]
20 | 510 | 2.1 | CCc1nc2c(C)cc(CCCc3cccnc3)nc2n1[C@H]1CCc2cc(-c3ccccc3-c3nnn[nH]3)ccc21 [Example 32, 3-((1S)-5-(2-(1H-tetrazol-5-yl)phenyl)-2,3-dihydro-1H-inden-1-yl)-2-ethyl-7-methyl-5-(3-(pyridin-3-yl)propyl)-3H-imidazo[4,5-b]pyridine]
50 | 70 | 1.4 | CCc1nnc(Cc2cc(C)c3nc(CC)n([C@H]4CCc5cc(-c6ccccc6-c6nnn[nH]6)ccc54)c3n2)o1 [Example 62, 3-((1S)-5-(2-(1H-tetrazol-5-yl)phenyl)-2,3-dihydro-1H-inden-1-yl)-2-ethyl-5-((5-ethyl-1,3,4-oxadiazol-2-yl)methyl)-7-methyl-3H-imidazo[4,5-b]pyridine]
22 | 245 | 2.3 | CCc1nc2c(C)cc(CC3CCCC3O)nc2n1[C@H]1CCc2cc(-c3ccccc3-c3nnn[nH]3)ccc21 (single isomer, unassigned) [Example 65]
31 | 110 | 2.5 | CCc1nc2c(C)cc(CCC(O)(CC)CC)nc2n1[C@H]1CCc2cc(-c3ccccc3-c3nnn[nH]3)ccc21 [Example 56, 1-(3-((1S)-5-(2-(1H-tetrazol-5-yl)phenyl)-2,3-dihydro-1H-inden-1-yl)-2-ethyl-7-methyl-3H-imidazo[4,5-b]pyridin-5-yl)-3-ethylpentane-3-ol]
20 | 770 | 0.8 | CCCc1nc2c(C)cc(CC[C@@H](C)O)nc2n1[C@H]1CCc2cc(-c3ccccc3-c3nnn[nH]3)ccc21 [Example 40, (R)-4-(3-((1S)-5-(2-(1H-tetrazol-5-yl)phenyl)-2,3-dihydro-1H-inden-1-yl)-7-methyl-2-propyl-3H-imidazo[4,5-b]pyridin-5-yl)butan-2-ol]
21 | 410 | 5 | CCc1nc2c(C)cc(C(C)(O)C(C)C)nc2n1[C@H]1CCc2cc(-c3ccccc3-c3nnn[nH]3)ccc21 (stereo partly drawn) [Example 61, 2-(3-((1S)-5-(2-(1H-tetrazol-5-yl)phenyl)-2,3-dihydro-1H-inden-1-yl)-2-ethyl-7-methyl-3H-imidazo[4,5-b]pyridin-5-yl)-3-methylbutan-2-ol]
26 | 170 | 1.2 | CCc1nc2c(C)cc(CC[C@@H](O)CC)nc2n1[C@H]1CCc2cc(-c3ccccc3-c3nnn[nH]3)ccc21 [Example 46, (S)-1-(3-((1S)-5-(2-(1H-tetrazol-5-yl)phenyl)-2,3-dihydro-1H-inden-1-yl)-2-ethyl-7-methyl-3H-imidazo[4,5-b]pyridin-5-yl)pentan-3-ol]
19 | 85 | 1.7 | CCc1nc2c(C)cc(CC(C)O)nc2n1[C@H]1CCc2cc(-c3ccccc3-c3nnn[nH]3)ccc21 (mixture of isomers) [Example 15, 1-(3-((1S)-5-(2-(1H-tetrazol-5-yl)phenyl)-2,3-dihydro-1H-inden-1-yl)-2-ethyl-7-methyl-3H-imidazo[4,5-b]pyridin-5-yl)propan-2-ol]
29 | 85 | 5.4 | CCc1nc2c(C)cc(CC(O)CC(C)C)nc2n1[C@H]1CCc2cc(-c3ccccc3-c3nnn[nH]3)ccc21 (stereo partly drawn) [Example 18, 1-(3-((1S)-5-(2-(1H-tetrazol-5-yl)phenyl)-2,3-dihydro-1H-inden-1-yl)-2-ethyl-7-methyl-3H-imidazo[4,5-b]pyridin-5-yl)-4-methylpentan-2-ol]
21 | 190 | 1.1 | CCc1nc2c(C)cc(CCCOC)nc2n1[C@H]1CCc2cc(-c3ccccc3-c3nnn[nH]3)ccc21 [Example 48, 3-((1S)-5-(2-(1H-tetrazol-5-yl)phenyl)-2,3-dihydro-1H-inden-1-yl)-2-ethyl-5-(3-methoxypropyl)-7-methyl-3H-imidazo[4,5-b]pyridine]
27 | 60 | 2.7 | C=CCc1cc(C)c2nc(CC)n([C@H]3CCc4cc(-c5ccccc5-c5nnn[nH]5)ccc43)c2n1 [Example 9, 3-((1S)-5-(2-(1H-tetrazol-5-yl)phenyl)-2,3-dihydro-1H-inden-1-yl)-5-allyl-2-ethyl-7-methyl-3H-imidazo[4,5-b]pyridine]
32 | 140 | 1.1 | CCc1nc2c(C)cc(CC[C@H](O)CC)nc2n1[C@H]1CCc2cc(-c3ccccc3-c3nnn[nH]3)ccc21 [Example 45, (R)-1-(3-((1S)-5-(2-(1H-tetrazol-5-yl)phenyl)-2,3-dihydro-1H-inden-1-yl)-2-ethyl-7-methyl-3H-imidazo[4,5-b]pyridin-5-yl)pentan-3-ol]
20 | 840 | 1 | CCCc1nc2c(C)cc(CCC3(O)CCCC3)nc2n1[C@H]1CCc2cc(-c3ccccc3-c3nnn[nH]3)ccc21 [Example 43, 1-(2-(3-((1S)-5-(2-(1H-tetrazol-5-yl)phenyl)-2,3-dihydro-1H-inden-1-yl)-7-methyl-2-propyl-3H-imidazo[4,5-b]pyridin-5-yl)ethyl)cyclopentanol]
32 | 295 | 2.2 | CCc1nc2c(C)cc(COC(C)C)nc2n1[C@H]1CCc2cc(-c3ccccc3-c3nnn[nH]3)ccc21 [Example 4, 3-((1S)-5-(2-(1H-tetrazol-5-yl)phenyl)-2,3-dihydro-1H-inden-1-yl)-2-ethyl-5-(isopropoxymethyl)-7-methyl-3H-imidazo[4,5-b]pyridine]
39 | 440 | 16 | CCc1nc2c(C)cc([C@H](O)C(C)C)nc2n1[C@H]1CCc2cc(-c3ccccc3-c3nnn[nH]3)ccc21 [Example 11, (R)-1-(3-((1S)-5-(2-(1H-tetrazol-5-yl)phenyl)-2,3-dihydro-1H-inden-1-yl)-2-ethyl-7-methyl-3H-imidazo[4,5-b]pyridin-5-yl)-2-methylpropan-1-ol]
63 | 45 | 6.9 | CCc1nc2c(C)cc(CCc3cc(C)ccc3C)nc2n1[C@H]1CCc2cc(-c3ccccc3-c3nnn[nH]3)ccc21 [Example 31, 3-((1S)-5-(2-(1H-tetrazol-5-yl)phenyl)-2,3-dihydro-1H-inden-1-yl)-5-(2,5-dimethylphenethyl)-2-ethyl-7-methyl-3H-imidazo[4,5-b]pyridine]
32 | 665 | 1.6 | CCc1nc2c(C)cc(COC)nc2n1[C@H]1CCc2cc(-c3ccccc3-c3nnn[nH]3)ccc21 [Example 3, 3-((1S)-5-(2-(1H-tetrazol-5-yl)phenyl)-2,3-dihydro-1H-inden-1-yl)-2-ethyl-5-(methoxymethyl)-7-methyl-3H-imidazo[4,5-b]pyridine]

Source: US20100029710A1, “COMPOUNDS HAVING BOTH ANGIOTENSIN II RECEPTOR ANTAGONISM AND PPARy ACTIVATING ACTIVITIES” (Pfizer Products Inc., priority 2006, published 2010)
